Common to all, as to experiment: Antibacterial MIC, broth microdilution (CLSI)
Holding throughout (format): cell-based

In assay [1] the test system is Staphylococcus aureus (ATCC 43300). The note with it: for MIC80: Staphylococcus aureus, ATCC43300, read-out: MIC80 S. aureus.
Assay [2] concerns Enterococcus faecalis (ATCC 51299). The note with it: for MIC80: Enterococcus faecalis, ATCC51299, read-out: MIC80 E. faecalis.
For assay [3], the system named is Escherichia coli (ATCC 25922). The note with it: for MIC80: Escherichia coli, ATCC25922, read-out: MIC80 E. coli.

Values after ≈ are worked out from the molar mass of the structure shown. Bounds are passed on as bounds.

One may read the MIC80 as an inhibitory concentration at the 80% level, which refers to growth in some studies and to a panel of isolates in others. In the case of `C/N=C(\CCNC(=O)c1cc(NC(=O)c2cc(NC(=O)c3ccc(/C=C/c4ccc(OC)cc4)nc3)cn2C)cn1C)NC` [Ia54, 6-((E)-4-methoxystyryl)-N-(1-methyl-5-((1-methyl-5-(((E)-3-(methylamino)-3-(methylimino)propyl)carbamoyl)-1H-pyrrol-3-yl)carbamoyl)-1H-pyrrol-3-yl)nicotinamide], the MIC80 in assay [1] was 5 to 25 µM (≈ 2.98 to 14.9 µg/mL); in assay [2], 5 to 25 µM (≈ 2.98 to 14.9 µg/mL); in assay [3] it was above 100 µM.
Regarding `CC[N+](C)(C)CCCNC(=O)c1cc(NC(=O)c2cc(NC(=O)c3ccc(/C=C/c4cccc(C(F)(F)F)c4)nc3)cn2C)cn1C` [Ic20, (E)-N-ethyl-N,N-dimethyl-3-(1-methyl-4-(1-methyl-4-(6-(3-(trifluoromethyl)styryl)nicotinamido)-1H-pyrrole-2-carboxamido)-1H-pyrrole-2-carboxamido)propan-1-aminium], the MIC80 in assay [1] was 25 to 100 µM.
With `COCCOCCOCC[N+](C)(C)CCNC(=O)c1cc(NC(=O)c2cc(NC(=O)c3ccc(/C=C/c4cnc5ccccc5c4)cc3)cn2C)cn1C` [Ic19, (E)-2-(2-(2-methoxyethoxy)ethoxy)-N,N-dimethyl-N-(2-(1-methyl-4-(1-methyl-4-(4-(2-(quinolin-3-yl)vinyl)benzamido)-1H-pyrrole-2-carboxamido)-1H-pyrrole-2-carboxamido)ethyl)ethan-1-aminium], the MIC80 in assay [1] was below 5 µM; in assay [2] it was 5 to 25 µM; in assay [3], above 100 µM.
For `CN(C)C(=O)c1cc(NC(=O)c2cc(NC(=O)c3ccc(/C=C/c4cnc5ccccc5c4)cc3)cn2C)cn1C` [IVa16, (E)-N,N,1-trimethyl-4-(1-methyl-4-(4-(2-(quinolin-3-yl)vinyl)benzamido)-1H-pyrrole-2-carboxamido)-1H-pyrrole-2-carboxamide] the same measures were below 5 µM, below 5 µM and above 100 µM.
In the same order, the values of `CN(C)c1ccc(/C=C/c2ccc(C(=O)Nc3cc(C(=O)Nc4cc(C(=O)NCCC(=N)NCC(F)F)n(C)c4)n(C)c3)cn2)cc1` [Ia63, (E)-N-(5-((5-((3-((2,2-difluoroethyl)amino)-3-iminopropyl)carbamoyl)-1-methyl-1H-pyrrol-3-yl)carbamoyl)-1-methyl-1H-pyrrol-3-yl)-6-(4-(dimethylamino)styryl)nicotinamide] are below 5 µM, 25 to 100 µM (≈ 16.1 to 64.6 µg/mL) and above 100 µM.
In the same order, the values of `Cn1cc(NC(=O)c2cc(NC(=O)c3ccc(/C=C/c4cnc5ccccc5c4)cc3)cn2C)cc1C(=O)NCCC(=N)NCC(F)F` [Ia62, (E)-N-(3-((2,2-difluoroethyl)amino)-3-iminopropyl)-1-methyl-4-(1-methyl-4-(4-(2-(quinolin-3-yl)vinyl)benzamido)-1H-pyrrole-2-carboxamido)-1H-pyrrole-2-carboxamide] are below 5 µM, below 5 µM and above 100 µM.
On to “N-(5-((5-(((Z)-3-(ethylamino)-3-(ethylimino)propyl)carbamoyl)-1-methyl-1H-pyrrol-3-yl)carbamoyl)-1-methyl-1H-pyrrol-3-yl)-6-((E)-3-methoxystyryl)nicotinamide [Ia26]”, for which the “MIC80 S. aureus” value in assay [1] (MIC at 80% inhibition, ATCC 43300) is recorded as “* (* means 25 μM < MIC80 <= 100 μM)”. Also, the “MIC80 E. faecalis” value in assay [2] (MIC at 80% inhibition, ATCC 51299) is recorded as “— (— means MIC80 > 100 μM)”. Besides, the “MIC80 E. coli” value in assay [3] (MIC at 80% inhibition, ATCC 25922) was “— (— means MIC80 > 100 μM)”.
Take `CN(C)c1ccc(/C=C/c2ccc(C(=O)Nc3cc(C(=O)Nc4cc(C(=O)NCCCCC(=N)N)n(C)c4)n(C)c3)cn2)cc1` [II2, (E)-N-(5-((5-((5-amino-5-iminopentyl)carbamoyl)-1-methyl-1H-pyrrol-3-yl)carbamoyl)-1-methyl-1H-pyrrol-3-yl)-6-(4-(dimethylamino)styryl)nicotinamide]: the MIC80 in assay [1] is 5 to 25 µM (≈ 3.05 to 15.2 µg/mL); in assay [2], 5 to 25 µM (≈ 3.05 to 15.2 µg/mL); in assay [3], above 100 µM.
On to `[H]/N=C(\CCNC(=O)c1cc(NC(=O)c2cc(NC(=O)c3ccc(C=Cc4ccc(N(C)C)cc4)nc3)cn2C)cn1C)N1CCOCC1` [Ib11, (E)-6-(4-(dimethylamino)styryl)-N-(5-((5-((3-imino-3-morpholinopropyl)carbamoyl)-1-methyl-1H-pyrrol-3-yl)carbamoyl)-1-methyl-1H-pyrrol-3-yl)nicotinamide], for which the MIC80 in assay [1] is below 5 µM; in assay [2] it was 5 to 25 µM (≈ 3.26 to 16.3 µg/mL); in assay [3], above 100 µM.
In the case of `CC[N+](C)(C)CCCNC(=O)c1cc(NC(=O)c2cc(NC(=O)c3ccc(/C=C/c4ccc5nonc5c4)cc3)cn2C)cn1C` [Ic22, (E)-3-(4-(4-(4-(2-(benzo[c][1,2,5]oxadiazol-5-yl)vinyl)benzamido)-1-methyl-1H-pyrrole-2-carboxamido)-1-methyl-1H-pyrrole-2-carboxamido)-N-ethyl-N,N-dimethylpropan-1-aminium], the MIC80 in assay [1] was in the range of 25 to 100 µM.
Still for that read-out and setting: with `C/N=C(/CCNC(=O)c1cc(NC(=O)c2cc(NC(=O)c3ccc(/C=C/c4ccc(F)cc4)nc3)cn2C)cn1C)NC` [Ia65, 6-((E)-4-fluorostyryl)-N-(1-methyl-5-((1-methyl-5-(((Z)-3-(methylamino)-3-(methylimino)propyl)carbamoyl)-1H-pyrrol-3-yl)carbamoyl)-1H-pyrrol-3-yl)nicotinamide] the figure was below 5 µM; with `CC[N+](C)(C)CCCNC(=O)c1cc(NC(=O)c2cc(NC(=O)c3ccc(/C=C/c4ccc(F)c(OC)c4)nc3)cn2C)cn1C` [Ic21, (E)-N-ethyl-3-(4-(4-(6-(4-fluoro-3-methoxystyryl)nicotinamido)-1-methyl-1H-pyrrole-2-carboxamido)-1-methyl-1H-pyrrole-2-carboxamido)-N,N-dimethylpropan-1-aminium], 25 to 100 µM.
Turning to `CNC(=N)CCNC(=O)c1cc(NC(=O)c2cc(NC(=O)c3ccc(/C=C/c4ccc(C(F)(F)F)cc4)cc3)cn2C)cn1C` [Ia2, (E)-N-(3-imino-3-(methylamino)propyl)-1-methyl-4-(1-methyl-4-(4-(4-(trifluoromethyl)styryl)benzamido)-1H-pyrrole-2-carboxamido)-1H-pyrrole-2-carboxamide], the MIC80 in assay [1] was below 5 µM; in assay [3] it was above 100 µM.
In the same order, the values of `CNC(=N)CCNC(=O)c1cc(NC(=O)c2cc(NC(=O)c3ccc(/C=C/c4ccc5ccccc5c4)cc3)cn2C)cn1C` [Ia4, (E)-N-(3-imino-3-(methylamino)propyl)-1-methyl-4-(1-methyl-4-(4-(2-(naphthalen-2-yl)vinyl)benzamido)-1H-pyrrole-2-carboxamido)-1H-pyrrole-2-carboxamide] are 5 to 25 µM (≈ 3.01 to 15 µg/mL) and above 100 µM.
On to `CC[N+](C)(C)CCCNC(=O)c1cc(NC(=O)c2cc(NC(=O)c3ccc(/C=C/c4cnc5ccccc5c4)cc3)cn2C)cn1C` [Ic23, (E)-N-ethyl-N,N-dimethyl-3-(1-methyl-4-(1-methyl-4-(4-(2-(quinolin-3-yl)vinyl)benzamido)-1H-pyrrole-2-carboxamido)-1H-pyrrole-2-carboxamido)propan-1-aminium], for which the MIC80 in assay [1] was 5 to 25 µM.
Still for that read-out and setting: with `C/N=C(/CCNC(=O)c1cc(NC(=O)c2cc(NC(=O)c3ccc(/C=C/c4cccc(F)c4)cc3)cn2C)cn1C)NC` [Ia64, 4-(4-((E)-3-fluorostyryl)benzamido)-1-methyl-N-(1-methyl-5-(((Z)-3-(methylamino)-3-(methylimino)propyl)carbamoyl)-1H-pyrrol-3-yl)-1H-pyrrole-2-carboxamide] the figure was 5 to 25 µM (≈ 2.92 to 14.6 µg/mL).

For the origin of these results see US20250313546A1, “NUCLEIC ACID BINDERS” (UNIVERSITY OF STRATHCLYDE, priority 2022, published 2025).
